Measurements from patent publication US8029768B2, “Treatment of respiratory diseases” (Sosei R&D Ltd., priority 2000, dated 2011).

Assays:
[1] = about 1 mg sample on sinter, 195 ml water reservoir, FIG. 1
Method: A 195 ml reservoir was used in the dissolution test. The reservoir was filled with water and contained a sampling inlet port and a sampling outlet port. A sintered disk of approximately 50 mm diameter and 3 mm depth was placed in an opening on top of the reservoir, in contact with the water. A known mass (about 1 mg) of the sample to be tested was dropped onto the sinter and a timer started. At various times, 1 ml samples were removed from the reservoir and immediately replaced with 1 ml of water to maintain the volume in the system. The samples were analysed in a Cecil Aquarius CE7200 ultraviolet spectrophotometer at a wavelength of 200 nm. The concentration of the samples was calculated with a previously prepared calibration graph and the concentration versus time was plotted.

[2] = system: asthma; details: inhaled, Walker et al. 1987; cited from earlier work

For `C[N+]1(C)CCC(OC(=O)C(O)(c2ccccc2)C2CCCC2)C1` (stereo not shown) [glycopyrrolate], the “time at which the maximum concentration is achieved” value [1] is given as 10 min, the “concentration of glycopyrrolate in the reservoir at 5 minutes” value ([1]; first time point 5 minutes) is given as “greater than 10 mg/l” and the “duration of effective treatment” value [2] is given as “up to 12 hours”. The “duration of effective treatment that appears to be maximal” value [2] was “up to 8 hours”.
